This note sets out measurements from patent publication US11517556B2, “Composition for BKCa channel activation” (GWANGJU INSTITUTE OF SCIENCE AND TECHNOLOGY, priority 2016, dated 2022).

The target in this assay is T1, mutant BKCa channel (G803D/N806K) (Rattus norvegicus, UniProt Q62976, G803D/N806K).
T1 construct: expressed in transfected cells
Briefly: Cell-based TI+ fluorescence (FluxOR) assay in AD-293 cells. The settings on record: for TI+-fluorescence enhancement (initial RFU increase): 10 μM, n=4. Here is the method: AD-293 cells (Lee et al., 2013), as a modified HEK293 cell for expressing a mutant BKCa channel, were placed in DMEM (Dulbecco's Modified Eagle's medium) supplemented with 10% fetal bovine serum and 1 mg/ml geneticin (Gibco) as an antibiotic. The cells were cultured under a humidified condition of 5% CO2 and 37° C.
AD-293 cells stably expressing the mutant BKCa channel (G803D/N806K) were used for cell-based assays (Lee et al., 2013). Approximately 20,000 cells/well were inoculated on a black-wall assay plate (Corning Incorporated) coated with poly-D-lysine (Sigma-Aldrich), which is 96-well clear-bottom. A FluxOR™ […] (Invitrogen) was used for initial screening of compound libraries, and for further assay of candidate compounds. Experiments were performed according to the manufacturer's following guidelines: growth medium was replaced with 80 μl/well of loading buffer containing FluxOR™ fluorescent dye, and incubation was carried out for 1 hour under a light-free condition. After the incubation, the loading buffer was replaced with 100 μl/well of assay buffer containing various concentrations of compounds of interest, followed by incubation for 20 minutes to 30 minutes. DMSO (1%) was vehicle and the vehicle was used for all test compounds. CTBIC (Cormemis et al. 2005; Lee et al. 2012), previously identified as an activator of the BKCa channel, was used as a positive control. For fluorescence measurements, synergy TM H1 hybrid multi-mode microplate reader (BioTek Instrument Inc., Winnoski, Vt.) and Cen5 software was used in initial screening. For additional assays, Flexstation 3 multi-mode microplate reader (Molecular Devices) and SoftMax®Pro software were used, respectively. A fluorescence signal was obtained at an excitation wavelength of 485 nm and an emission wavelength of 528 nm. Membrane polarization was induced by a stimulus buffer containing thallium ion. The fluorescence signal was measured under two conditions: every 10 seconds for 2 minutes before treating the stimulation buffer and then every 10 seconds for 3 minutes after addition of stimulation buffer for synergy H1, and every 2 seconds for 20 seconds before stimulus buffer treatment, and then every 2 seconds for 160 seconds after adding the stimulus buffer for FlexStation 3.
A fluorescence signal change was measured based on a relative fluorescence unit (RFU) or F/F0 where F0 is ta minimum fluorescence value of each fluorescence trace. To quantitatively compare activation effects of kurarinone and its derivatives, an initial fluorescence increase was calculated using first three points after treatment with the stimulation buffer, and a linear slope was predicted using OriginPro 9.1 (OriginLab Corp., Northampton, Mass.).

T1 sequence (Q62976 whole entry G803D/N806K): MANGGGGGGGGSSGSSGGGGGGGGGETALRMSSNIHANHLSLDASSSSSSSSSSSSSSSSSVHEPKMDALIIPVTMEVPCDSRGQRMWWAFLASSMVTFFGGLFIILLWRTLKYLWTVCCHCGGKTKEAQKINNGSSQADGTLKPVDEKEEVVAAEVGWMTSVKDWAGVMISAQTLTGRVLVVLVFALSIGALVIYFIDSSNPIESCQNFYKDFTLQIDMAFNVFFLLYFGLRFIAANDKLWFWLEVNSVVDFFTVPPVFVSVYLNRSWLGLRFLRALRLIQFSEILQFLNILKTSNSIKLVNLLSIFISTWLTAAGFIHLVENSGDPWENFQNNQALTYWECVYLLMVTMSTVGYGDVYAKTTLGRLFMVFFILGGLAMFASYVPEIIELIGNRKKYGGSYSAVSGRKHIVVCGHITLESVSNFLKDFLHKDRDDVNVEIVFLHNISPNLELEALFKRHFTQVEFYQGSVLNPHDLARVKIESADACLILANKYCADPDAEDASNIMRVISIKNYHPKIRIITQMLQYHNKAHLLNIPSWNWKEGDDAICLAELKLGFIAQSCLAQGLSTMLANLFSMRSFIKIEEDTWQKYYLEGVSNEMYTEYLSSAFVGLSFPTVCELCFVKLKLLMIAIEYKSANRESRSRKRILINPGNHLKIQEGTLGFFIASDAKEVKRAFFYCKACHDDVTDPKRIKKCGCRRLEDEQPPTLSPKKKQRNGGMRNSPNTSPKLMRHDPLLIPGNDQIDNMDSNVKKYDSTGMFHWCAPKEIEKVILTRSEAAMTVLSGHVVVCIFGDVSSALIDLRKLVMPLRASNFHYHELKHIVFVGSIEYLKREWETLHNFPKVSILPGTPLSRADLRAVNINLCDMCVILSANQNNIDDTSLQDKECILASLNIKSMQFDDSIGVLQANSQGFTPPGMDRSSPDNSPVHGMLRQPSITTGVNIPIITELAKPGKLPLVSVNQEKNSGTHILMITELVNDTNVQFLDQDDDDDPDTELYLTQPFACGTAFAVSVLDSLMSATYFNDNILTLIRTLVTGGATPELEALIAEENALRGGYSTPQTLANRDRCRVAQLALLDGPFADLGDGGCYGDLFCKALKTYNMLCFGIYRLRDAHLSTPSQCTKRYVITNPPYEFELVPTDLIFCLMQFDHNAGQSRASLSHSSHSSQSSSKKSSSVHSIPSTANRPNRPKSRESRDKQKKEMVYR

As for `CC(C)(O)[C@H]1O[C@H]2CC[C@@]3(C)[C@@](O)(CC[C@H]4Cc5c([nH]c6ccccc56)[C@@]43C)C2=CC1=O` [pacilin, reference compound], the “block of kurarinone-induced fluorescence enhancement” value (co-treatment of 1 μM blocker with kurarinone (5 μM)) is listed as “completely blocked”.

Turning to `C=C(C)[C@H](CCC(C)(C)O)Cc1c(O)cc(OC)c2c1O[C@H](c1ccc(O)cc1O)CC2=O` [kurarinol, reference compound], the “TI+-fluorescence enhancement (initial RFU increase)” value is “weaker fluorescence effects”.

Regarding `O=C1C[C@@H](c2ccc(O)cc2)Oc2cc(O)cc(O)c21` [naringenin], the “TI+-fluorescence enhancement (initial RFU increase)” value is reported as “strong fluorescence increase”.

In the case of `CC(C)=CCc1c(O)cc(O)c2c1O[C@H](c1ccc(O)cc1O)CC2=O` [leachianone G], the “TI+-fluorescence enhancement (initial RFU increase)” value was “strong fluorescence increase”.
